{
  "source": "ChEMBL document CHEMBL1201862",
  "about": "“PubChem BioAssay data set” (2004)",
  "key": {"[1]": {"biological_target": "T1, Ubiquitin-conjugating enzyme E2 N (Homo sapiens, UniProt P61088)", "T1 sequence (P61088 whole entry)": "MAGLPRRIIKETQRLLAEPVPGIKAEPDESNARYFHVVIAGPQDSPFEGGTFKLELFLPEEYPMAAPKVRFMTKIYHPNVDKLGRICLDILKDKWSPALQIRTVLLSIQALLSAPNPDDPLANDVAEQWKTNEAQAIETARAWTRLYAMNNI", "type": "functional"}, "[2]": {"biological_target": "T2, Acyl-homoserine lactone acylase PvdQ (Pseudomonas aeruginosa (strain LESB58), UniProt Q9I194)", "T2 sequence (Q9I194 whole entry)": "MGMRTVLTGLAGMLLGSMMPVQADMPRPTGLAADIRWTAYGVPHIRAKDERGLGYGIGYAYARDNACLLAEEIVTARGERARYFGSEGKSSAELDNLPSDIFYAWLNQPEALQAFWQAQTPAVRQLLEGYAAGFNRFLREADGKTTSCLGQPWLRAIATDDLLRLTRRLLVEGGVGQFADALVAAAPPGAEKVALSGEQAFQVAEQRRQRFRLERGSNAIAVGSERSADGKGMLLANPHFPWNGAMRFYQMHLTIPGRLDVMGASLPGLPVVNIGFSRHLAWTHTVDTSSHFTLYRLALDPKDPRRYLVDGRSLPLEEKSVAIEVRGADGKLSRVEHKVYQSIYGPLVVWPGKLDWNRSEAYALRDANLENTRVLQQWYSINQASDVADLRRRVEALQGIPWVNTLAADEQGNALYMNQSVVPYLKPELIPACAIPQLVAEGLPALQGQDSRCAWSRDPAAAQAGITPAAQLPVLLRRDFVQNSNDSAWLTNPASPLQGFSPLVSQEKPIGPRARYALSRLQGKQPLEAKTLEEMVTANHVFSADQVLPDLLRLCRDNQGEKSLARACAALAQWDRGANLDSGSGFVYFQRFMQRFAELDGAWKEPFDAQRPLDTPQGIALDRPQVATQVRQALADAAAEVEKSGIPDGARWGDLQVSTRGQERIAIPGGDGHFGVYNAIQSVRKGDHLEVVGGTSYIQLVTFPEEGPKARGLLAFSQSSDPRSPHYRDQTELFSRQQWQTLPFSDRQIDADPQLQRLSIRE", "experiment": "PvdQ acylase enzyme activity blockers – biochemical, fluorescence, plate reader and imaging, cherry-picks, dose response (AID 493231)"}, "[3]": {"biological_target": "T3, CAAX prenyl protease 2 (Homo sapiens, UniProt Q9Y256)", "T3 sequence (Q9Y256 whole entry)": "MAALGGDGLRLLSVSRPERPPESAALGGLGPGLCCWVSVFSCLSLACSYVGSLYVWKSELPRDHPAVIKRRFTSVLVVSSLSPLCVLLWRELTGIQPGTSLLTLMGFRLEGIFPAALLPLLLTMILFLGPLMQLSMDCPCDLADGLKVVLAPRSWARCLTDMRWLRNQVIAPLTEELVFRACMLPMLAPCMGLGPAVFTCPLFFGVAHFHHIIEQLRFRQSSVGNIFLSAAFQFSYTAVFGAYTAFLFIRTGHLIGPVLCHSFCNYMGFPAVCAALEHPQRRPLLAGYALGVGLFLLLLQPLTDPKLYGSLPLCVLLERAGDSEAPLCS", "experiment": "inhibition of Ras-converting CAAX protease Rce1 – biochemical, yeast membranes, quenched-peptide fluorescence, cherry-pick, dose response (AID 588849)"}, "[4]": {"experiment": "cells", "type": "functional, cell-based"}, "[5]": {"system": "BJ", "experiment": "BJ-TERT fibroblast viability loss – cell-based, RAS-independent, luminescence, dose response (AID 1933)", "type": "functional", "conditions": "Homo sapiens"}, "[6]": {"system": "BJ", "experiment": "cells", "type": "functional, cell-based", "conditions": "Homo sapiens"}, "[7]": {"experiment": "HEK-293T viability loss after treatment – luminescence, T-cell screen hits, cytotoxicity control for TCR NF-kB inhibitor project, dose response (AID 489026);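 note: cells exposed to compound about 14 hours before the viability readout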", "type": "functional, cell-based"}, "[8]": {"experiment": "DRD fibroblast viability loss – cell-based, non-viral oncogenic, luminescence, dose response (AID 1934)", "type": "functional", "conditions": "Homo sapiens"}, "[9]": {"experiment": "alpha-synuclein stem-loop luciferase translation blockers – H4 neuroglioma cells, luminescence, confirmation (AID 1988)", "type": "functional, cell-based"}, "[10]": {"experiment": "luciferase reporter signal suppression in cells – H4 neuroglioma cells, luminescence, dose response (AID 1990)", "type": "functional, cell-based"}, "[11]": {"experiment": "alpha-synuclein stem-loop translation blockers – luminescence, H4 neuroglioblastoma cells, dose confirmation, confirmation (AID 2454);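 note: potency for inhibition of the luciferase signal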", "type": "functional, cell-based"}, "[12]": {"experiment": "luciferase reporter signal reduction – luminescence, H4-C neuroglioblastoma cells, dose response (AID 2458);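 note: H4 neuroglioblastoma cells stably carrying a luciferase reporter gene fusion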", "type": "functional, cell-based"}, "[13]": {"biological_target": "Procathepsin L (Homo sapiens, UniProt P07711)", "sequence (P07711 whole entry)": "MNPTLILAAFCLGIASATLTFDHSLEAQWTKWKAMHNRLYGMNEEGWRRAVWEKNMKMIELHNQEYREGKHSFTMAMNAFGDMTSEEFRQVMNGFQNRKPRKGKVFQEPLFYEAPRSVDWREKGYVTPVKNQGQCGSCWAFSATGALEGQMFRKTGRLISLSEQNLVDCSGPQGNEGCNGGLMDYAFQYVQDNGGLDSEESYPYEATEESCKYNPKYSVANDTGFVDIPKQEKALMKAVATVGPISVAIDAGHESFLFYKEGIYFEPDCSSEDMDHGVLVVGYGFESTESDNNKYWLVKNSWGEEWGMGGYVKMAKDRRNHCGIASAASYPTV", "experiment": "CTSL1 protease inhibition – biochemical, QFRET, 1536-well, counter-screen for M1/M17 aminopeptidase inhibitor project, dose response (AID 2214)"}, "[14]": {"biological_target": "T4, Aspartyl aminopeptidase (Plasmodium falciparum 3D7, UniProt Q8I2J3)", "T4 sequence (Q8I2J3 whole entry)": "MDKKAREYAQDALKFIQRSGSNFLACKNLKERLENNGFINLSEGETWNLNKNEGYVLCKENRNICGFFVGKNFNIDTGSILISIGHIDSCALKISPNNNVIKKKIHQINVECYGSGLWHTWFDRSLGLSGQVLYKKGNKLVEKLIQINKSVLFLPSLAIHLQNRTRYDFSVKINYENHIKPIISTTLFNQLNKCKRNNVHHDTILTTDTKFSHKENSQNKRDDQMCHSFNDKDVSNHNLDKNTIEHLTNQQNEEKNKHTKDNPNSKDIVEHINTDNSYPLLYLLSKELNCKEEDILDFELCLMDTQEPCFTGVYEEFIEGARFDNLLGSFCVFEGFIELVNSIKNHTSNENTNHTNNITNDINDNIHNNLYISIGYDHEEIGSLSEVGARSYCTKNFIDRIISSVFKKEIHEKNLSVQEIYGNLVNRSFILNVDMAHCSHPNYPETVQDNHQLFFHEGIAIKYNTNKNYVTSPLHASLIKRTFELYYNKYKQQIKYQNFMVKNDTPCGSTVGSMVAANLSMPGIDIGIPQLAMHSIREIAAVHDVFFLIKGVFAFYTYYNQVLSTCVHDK", "experiment": "Counterscreen for inhibitors of M1 and M17 aminopeptidases: QFRET-based biochemical high throughput dose response assay for inhibitors of the Plasmodium falciparum M18 Aspartyl Aminopeptidase (PFM18AAP). [Related PubChem assays: 1619 (Screening assay (M17LAP inhibitors).), 1445 (Screening assay (M1AAP inhibitors).)]"}, "[15]": {"biological_target": "T5, Leucine aminopeptidase (Plasmodium falciparum 3D7, UniProt Q8IL11)", "T5 sequence (Q8IL11 whole entry)": "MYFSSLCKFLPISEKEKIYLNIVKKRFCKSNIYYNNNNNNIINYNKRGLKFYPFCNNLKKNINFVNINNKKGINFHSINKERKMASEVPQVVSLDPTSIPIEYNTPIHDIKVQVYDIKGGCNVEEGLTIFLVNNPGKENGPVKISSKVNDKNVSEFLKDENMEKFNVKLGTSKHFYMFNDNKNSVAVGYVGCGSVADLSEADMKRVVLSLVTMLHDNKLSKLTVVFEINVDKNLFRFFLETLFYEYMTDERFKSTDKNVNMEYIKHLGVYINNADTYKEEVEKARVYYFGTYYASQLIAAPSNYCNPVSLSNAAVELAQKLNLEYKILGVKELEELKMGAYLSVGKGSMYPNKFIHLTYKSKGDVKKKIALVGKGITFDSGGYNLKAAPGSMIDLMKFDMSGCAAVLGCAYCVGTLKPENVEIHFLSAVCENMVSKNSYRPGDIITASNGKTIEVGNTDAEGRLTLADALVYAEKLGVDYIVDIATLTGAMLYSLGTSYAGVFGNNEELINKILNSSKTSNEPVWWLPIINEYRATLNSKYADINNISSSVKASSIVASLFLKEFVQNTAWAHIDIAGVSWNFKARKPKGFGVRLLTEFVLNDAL", "experiment": "P. falciparum M17LAP inhibitors, primary screen, biochemical, fluorogenic H-Leu-NHMec substrate, 1536-well (AID 1619)", "type": "functional"}, "[16]": {"experiment": "A cytotoxicity screen of small molecule inhibitors of the PhoP region in Salmonella typhi identified in the primary screen. [Related pubchem assays: 1850, 1864, 1985 ]", "type": "functional"}, "[17]": {"biological_target": "Eukaryotic translation initiation factor 4E (Mus musculus, UniProt P63073)", "sequence (P63073 whole entry)": "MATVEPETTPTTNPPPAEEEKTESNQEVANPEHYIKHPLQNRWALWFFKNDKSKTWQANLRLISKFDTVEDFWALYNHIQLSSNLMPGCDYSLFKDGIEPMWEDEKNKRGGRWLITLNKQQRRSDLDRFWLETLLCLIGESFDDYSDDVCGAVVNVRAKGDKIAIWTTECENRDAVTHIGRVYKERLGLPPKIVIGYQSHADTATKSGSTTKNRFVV", "experiment": "blockers of eIF4G binding by eIF4E – biochemical, TR-FRET, dose response (AID 855);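 note: potency for disrupting eIF4E binding to eIF4GI seen as loss of FRET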", "type": "functional"}},
  "note": "Calls of active or inactive are those of the source.",
  "data": [
    {"molecule": "COc1cccc(Cn2cnc3c([N+](=O)[O-])c(C)c(C)cc32)c1", "values": [
      {"measurement": "IC50", "setting": "[1]", "value": "> 20000 nM (inactive)"}
    ]},
    {"molecule": "Cc1cc(NC(=O)c2cc([N+](=O)[O-])ccc2Cl)no1", "values": [
      {"measurement": "AC50", "setting": "[2]", "value": "3710 nM (active)"}
    ]},
    {"molecule": "COc1ccccc1-c1nnc2sc(-c3ccc(N(C)C)cc3)nn12", "values": [
      {"measurement": "AC50", "setting": "[3]", "value": "1020 nM (active)"},
      {"measurement": "EC50", "setting": "[4]", "value": "290 nM (active)"},
      {"measurement": "EC50", "setting": "[5]", "value": "179 nM (active)"},
      {"measurement": "EC50", "setting": "[6]", "value": "637 nM (active)"},
      {"measurement": "IC50", "setting": "[7]", "value": "> 80000 nM (inactive)"},
      {"measurement": "EC50", "setting": "[8]", "value": "202 nM (active)"},
      {"measurement": "EC50", "setting": "[9]", "value": "< 100 nM (active)"},
      {"measurement": "EC50", "setting": "[10]", "value": "< 100 nM (active)"},
      {"measurement": "EC50", "setting": "[11]", "value": "179 nM (active)"},
      {"measurement": "EC50", "setting": "[12]", "value": "143 nM (active)"}
    ]},
    {"molecule": "CCOc1ccc(C(=O)Nc2cccc(C)n2)cc1", "values": [
      {"measurement": "AC50", "setting": "[2]", "value": "19300 nM (active)"}
    ]},
    {"molecule": "COc1ccc(NC(=O)CSc2nc(O)cc(=O)n2C)cc1", "values": [
      {"measurement": "IC50", "setting": "[13]", "value": "> 59600 nM (not active)"},
      {"measurement": "IC50", "setting": "[14]", "value": "> 73500 nM (not active)"},
      {"measurement": "IC50", "setting": "[15]", "value": "2590 nM (active)"}
    ]},
    {"molecule": "CCOc1ccc(C2CC(=O)NC(SCC(=O)OC)=C2C#N)cc1", "note": "(centres undefined)", "values": [
      {"measurement": "EC50", "setting": "[16]", "value": "> 50000 nM (active)"}
    ]},
    {"molecule": "O=C(CSc1nnc(-c2ccccc2)n1-c1ccc(Cl)cc1)NC1CCS(=O)(=O)C1", "note": "(centres undefined)", "values": [
      {"measurement": "EC50", "setting": "[16]", "value": "> 50000 nM (active)"}
    ]},
    {"molecule": "O=C1OC(c2ccccc2)=C/C1=C\\c1ccc(-c2ccc([N+](=O)[O-])cc2)o1", "values": [
      {"measurement": "IC50", "setting": "[17]", "value": "50000 nM (inactive)"}
    ]}
  ]
}
